Experimental data as given in patent publication US11793849B2, “Method of Chinese herbal medicine extract used for treating multiple diseases caused by drug resistant bacteria infection” (priority 2016, dated 2023).
Converted amounts (≈) assume the structure as drawn. Where two headings read alike, the source gives them in different places.

Columns and labels:
MDRPA [1] = experiment: MIC determination, microdilution broth method;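 also: broth microdilution per NCCLS recommendations, testing Pithecellobium clypearia water or ethanol extracts against multidrug-resistant Pseudomonas aeruginosa, with MIC50 and MIC90 derived statistically from individual MICs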
Method: Determination methods of a Minimal Inhibitory Concentration (MIC) and a Minimum Bactericidal Concentration (MBC) of a test product: the MIC and the MBC of the Pithecellobium clypearia Benth water or ethanol extract to the MDRAB are determined by a microdilution broth method. And it is operated by referring to the microdilution broth method recommended by National Committee for Clinical Laboratory Standards (NCCLS).
By determining the MIC and the MBC of the drug and making statistics of the data to obtain MIC50, MIC90, MBC50 and MBC90, the effect of the MDRA resistance of the drug is evaluated.
Test method: the MDRPA (serial No.: P1-P20) strains are tested and are evaluated with reference to the method in the first embodiment.

MDRPA [2] = experiment: Checkerboard assay (combined-use MIC, FIC); type: cell-based, Pseudomonas aeruginosa; details: for FIC, all strains / MIC50 of the antibiotic after combined use / MIC90 of the antibiotic after combined use / reduction of the antibiotic's MIC50 vs single use / reduction of the antibiotic's MIC90 vs single use / share of strains with FIC ≤ 0.5: 20 MDRPAs; for combined-use MIC: EA (P. clypearia water extract) combined with IMP
Method: Test methods of the sensibilization effects of the test product to similar antibiotics: it is operated by referring to a checkerboard assay recommended by NCCLS.
The checkerboard assay is performed in a 96-pore sterile culture plate.
Calculation of a Fractional Inhibitory Concentration (FIC): FIC=S20b combined-use MIC/S20b single-use MIC+antibiotic combined-use MIC/antibiotic single-use MIC. By calculating the FIC, the combined antibacterial interaction between the EA and the antibiotic is evaluated, with synergistic effect for FIC≤0.5, additive effect for 0.5<FIC≤1, indifferent effect for 1<FIC≤2 and antagonistic effect for FIC>2. According to a sterile growth pore, the optimum concentration ratio between the EA and the antibiotic is founded out. At last, the effect of the EA to strengthen the efficacy of the antibiotic is evaluated.

[3] = 20 MDRPAs, EA = 60% ethanol extract
[4] = 20 MDRPAs, EA = 95% ethanol extract
[5] = MDRPAs P1-P20, single use, EA=P. clypearia 10% ethanol extract
[6] = MDRPAs P1-P20, single use, EA=P. clypearia water extract
[7] = single use, 20 MDRPAs, section of the 10% ethanol extract
[8] = single use, 20 MDRPAs, section of the 60% ethanol extract
[9] = single use, 20 MDRPAs, section of the 95% ethanol extract
[10] = antibiotic with 10% ethanol extract
[11] = antibiotic with 60% ethanol extract
[12] = antibiotic with 95% ethanol extract
[13] = antibiotic with EA (water extract)

## C[C@@H](O)[C@H]1C(=O)N2C(C(=O)O)=C(SCCN=CN)C[C@H]12 [IMP, imipenem]
MDRPA [1]; [3]
  MIC50: 32 µg/mL (≈ 107 µM)
  MIC90: 64 µg/mL (≈ 214 µM)
  MIC Range: 4 to 64 µg/mL
MDRPA [1]; [4]
  MIC50: 32 µg/mL (≈ 107 µM)
  MIC90: 64 µg/mL (≈ 214 µM)
  MIC Range: 4 to 64 µg/mL
MDRPA [1]; [5]
  MIC50: 32 µg/mL (≈ 107 µM)
  MIC90: 64 µg/mL (≈ 214 µM)
  MIC Range: 4 to 64 µg/mL
MDRPA [1]; [6]
  MIC50: 32 µg/mL (≈ 107 µM)
  MIC90: 64 µg/mL (≈ 214 µM)
  MIC Range: 4 to 64 µg/mL
MDRPA [1]; Pseudomonas aeruginosa
  MIC50: 32 µg/mL (≈ 107 µM)
  MIC90: 64 µg/mL (≈ 214 µM)
MDRPA [1]; Pseudomonas aeruginosa, read-out: MIC (single use), strain P1, EA=P. clypearia 10% ethanol extract
  MIC: 32 µg/mL (≈ 107 µM)
MDRPA [1]; Pseudomonas aeruginosa, read-out: MIC (single use), strain P1, EA=P. clypearia water extract
  MIC: 32 µg/mL (≈ 107 µM)
MDRPA [1]; Pseudomonas aeruginosa, read-out: MIC (single use), strain P2, EA=P. clypearia 10% ethanol extract
  MIC: 64 µg/mL (≈ 214 µM)
MDRPA [1]; Pseudomonas aeruginosa, read-out: MIC (single use), strain P2, EA=P. clypearia water extract
  MIC: 64 µg/mL (≈ 214 µM)
MDRPA [1]; Pseudomonas aeruginosa, read-out: MIC (single use), strain P3, EA=P. clypearia 10% ethanol extract
  MIC: 64 µg/mL (≈ 214 µM)
MDRPA [1]; Pseudomonas aeruginosa, read-out: MIC (single use), strain P3, EA=P. clypearia water extract
  MIC: 64 µg/mL (≈ 214 µM)
MDRPA [1]; Pseudomonas aeruginosa, read-out: MIC (single use), strain P4, EA=P. clypearia 10% ethanol extract
  MIC: 32 µg/mL (≈ 107 µM)
MDRPA [1]; Pseudomonas aeruginosa, read-out: MIC (single use), strain P4, EA=P. clypearia water extract
  MIC: 32 µg/mL (≈ 107 µM)
MDRPA [1]; Pseudomonas aeruginosa, read-out: MIC (single use), strain P5, EA=P. clypearia 10% ethanol extract
  MIC: 64 µg/mL (≈ 214 µM)
MDRPA [1]; Pseudomonas aeruginosa, read-out: MIC (single use), strain P5, EA=P. clypearia water extract
  MIC: 64 µg/mL (≈ 214 µM)
MDRPA [1]; Pseudomonas aeruginosa, read-out: MIC (single use), strain P6, EA=P. clypearia 10% ethanol extract
  MIC: 32 µg/mL (≈ 107 µM)
MDRPA [1]; Pseudomonas aeruginosa, read-out: MIC (single use), strain P6, EA=P. clypearia water extract
  MIC: 32 µg/mL (≈ 107 µM)
MDRPA [1]; Pseudomonas aeruginosa, read-out: MIC (single use), strain P7, EA=P. clypearia 10% ethanol extract
  MIC: 32 µg/mL (≈ 107 µM)
MDRPA [1]; Pseudomonas aeruginosa, read-out: MIC (single use), strain P7, EA=P. clypearia water extract
  MIC: 32 µg/mL (≈ 107 µM)
MDRPA [1]; Pseudomonas aeruginosa, read-out: MIC (single use), strain P8, EA=P. clypearia 10% ethanol extract
  MIC: 64 µg/mL (≈ 214 µM)
MDRPA [1]; Pseudomonas aeruginosa, read-out: MIC (single use), strain P8, EA=P. clypearia water extract
  MIC: 64 µg/mL (≈ 214 µM)
MDRPA [1]; Pseudomonas aeruginosa, read-out: MIC (single use), strain P9, EA=P. clypearia 10% ethanol extract
  MIC: 32 µg/mL (≈ 107 µM)
MDRPA [1]; Pseudomonas aeruginosa, read-out: MIC (single use), strain P9, EA=P. clypearia water extract
  MIC: 32 µg/mL (≈ 107 µM)
MDRPA [1]; Pseudomonas aeruginosa, read-out: MIC (single use), strain P10, EA=P. clypearia 10% ethanol extract
  MIC: 64 µg/mL (≈ 214 µM)
MDRPA [1]; Pseudomonas aeruginosa, read-out: MIC (single use), strain P10, EA=P. clypearia water extract
  MIC: 64 µg/mL (≈ 214 µM)
MDRPA [1]; Pseudomonas aeruginosa, read-out: MIC (single use), strain P11, EA=P. clypearia 10% ethanol extract
  MIC: 8 µg/mL (≈ 26.7 µM)
MDRPA [1]; Pseudomonas aeruginosa, read-out: MIC (single use), strain P11, EA=P. clypearia water extract
  MIC: 8 µg/mL (≈ 26.7 µM)
MDRPA [1]; Pseudomonas aeruginosa, read-out: MIC (single use), strain P12, EA=P. clypearia 10% ethanol extract
  MIC: 32 µg/mL (≈ 107 µM)
MDRPA [1]; Pseudomonas aeruginosa, read-out: MIC (single use), strain P12, EA=P. clypearia water extract
  MIC: 32 µg/mL (≈ 107 µM)
MDRPA [1]; Pseudomonas aeruginosa, read-out: MIC (single use), strain P13, EA=P. clypearia 10% ethanol extract
  MIC: 8 µg/mL (≈ 26.7 µM)
MDRPA [1]; Pseudomonas aeruginosa, read-out: MIC (single use), strain P13, EA=P. clypearia water extract
  MIC: 8 µg/mL (≈ 26.7 µM)
MDRPA [1]; Pseudomonas aeruginosa, read-out: MIC (single use), strain P14, EA=P. clypearia 10% ethanol extract
  MIC: 32 µg/mL (≈ 107 µM)
MDRPA [1]; Pseudomonas aeruginosa, read-out: MIC (single use), strain P14, EA=P. clypearia water extract
  MIC: 32 µg/mL (≈ 107 µM)
MDRPA [1]; Pseudomonas aeruginosa, read-out: MIC (single use), strain P15, EA=P. clypearia 10% ethanol extract
  MIC: 32 µg/mL (≈ 107 µM)
MDRPA [1]; Pseudomonas aeruginosa, read-out: MIC (single use), strain P15, EA=P. clypearia water extract
  MIC: 32 µg/mL (≈ 107 µM)
MDRPA [1]; Pseudomonas aeruginosa, read-out: MIC (single use), strain P16, EA=P. clypearia 10% ethanol extract
  MIC: 16 µg/mL (≈ 53.4 µM)
MDRPA [1]; Pseudomonas aeruginosa, read-out: MIC (single use), strain P16, EA=P. clypearia water extract
  MIC: 16 µg/mL (≈ 53.4 µM)
MDRPA [1]; Pseudomonas aeruginosa, read-out: MIC (single use), strain P17, EA=P. clypearia 10% ethanol extract
  MIC: 16 µg/mL (≈ 53.4 µM)
MDRPA [1]; Pseudomonas aeruginosa, read-out: MIC (single use), strain P17, EA=P. clypearia water extract
  MIC: 16 µg/mL (≈ 53.4 µM)
MDRPA [1]; Pseudomonas aeruginosa, read-out: MIC (single use), strain P18, EA=P. clypearia 10% ethanol extract
  MIC: 32 µg/mL (≈ 107 µM)
MDRPA [1]; Pseudomonas aeruginosa, read-out: MIC (single use), strain P18, EA=P. clypearia water extract
  MIC: 32 µg/mL (≈ 107 µM)
MDRPA [1]; Pseudomonas aeruginosa, read-out: MIC (single use), strain P19, EA=P. clypearia 10% ethanol extract
  MIC: 64 µg/mL (≈ 214 µM)
MDRPA [1]; Pseudomonas aeruginosa, read-out: MIC (single use), strain P19, EA=P. clypearia water extract
  MIC: 64 µg/mL (≈ 214 µM)
MDRPA [1]; Pseudomonas aeruginosa, read-out: MIC (single use), strain P20, EA=P. clypearia 10% ethanol extract
  MIC: 4 µg/mL (≈ 13.4 µM)
MDRPA [1]; Pseudomonas aeruginosa, read-out: MIC (single use), strain P20, EA=P. clypearia water extract
  MIC: 4 µg/mL (≈ 13.4 µM)
MDRPA [1]; [7]
  MIC50: 32 µg/mL (≈ 107 µM)
  MIC90: 64 µg/mL (≈ 214 µM)
MDRPA [1]; [8]
  MIC50: 32 µg/mL (≈ 107 µM)
  MIC90: 64 µg/mL (≈ 214 µM)
MDRPA [1]; [9]
  MIC50: 32 µg/mL (≈ 107 µM)
  MIC90: 64 µg/mL (≈ 214 µM)
MDRPA [2]; [10]
  FIC, all strains: ≤ 2
  MIC50 of the antibiotic after combined use: 2 µg/mL
  MIC90 of the antibiotic after combined use: 16 µg/mL
  reduction of the antibiotic's MIC50 vs single use: 93.75%
  reduction of the antibiotic's MIC90 vs single use: 75%
  share of strains with FIC ≤ 0.5: 50%
MDRPA [2]; [11]
  FIC, all strains: ≤ 2
  MIC50 of the antibiotic after combined use: 2 µg/mL
  MIC90 of the antibiotic after combined use: 16 µg/mL
  reduction of the antibiotic's MIC50 vs single use: 93.75%
  reduction of the antibiotic's MIC90 vs single use: 75%
  share of strains with FIC ≤ 0.5: 15%
MDRPA [2]; [12]
  FIC, all strains: ≤ 2
  MIC50 of the antibiotic after combined use: 4 µg/mL
  MIC90 of the antibiotic after combined use: 16 µg/mL
  reduction of the antibiotic's MIC50 vs single use: 75%
  reduction of the antibiotic's MIC90 vs single use: 75%
  share of strains with FIC ≤ 0.5: 40%
MDRPA [2]; [13]
  FIC, all strains: ≤ 2
  MIC50 of the antibiotic after combined use: 2 µg/mL
  MIC90 of the antibiotic after combined use: 16 µg/mL
  reduction of the antibiotic's MIC50 vs single use: 93.75%
  reduction of the antibiotic's MIC90 vs single use: 75%
  share of strains with FIC ≤ 0.5: 40%
MDRPA [2]; strain P1
  combined-use MIC: 16 µg/mL
MDRPA [2]; strain P2
  combined-use MIC: 2 µg/mL
MDRPA [2]; strain P3
  combined-use MIC: 2 µg/mL
MDRPA [2]; strain P4
  combined-use MIC: 2 µg/mL
MDRPA [2]; strain P5
  combined-use MIC: 16 µg/mL
MDRPA [2]; strain P6
  combined-use MIC: 2 µg/mL
MDRPA [2]; strain P7
  combined-use MIC: 2 µg/mL
MDRPA [2]; strain P8
  combined-use MIC: 2 µg/mL
MDRPA [2]; strain P9
  combined-use MIC: 16 µg/mL
MDRPA [2]; strain P10
  combined-use MIC: 16 µg/mL
MDRPA [2]; strain P11
  combined-use MIC: 4 µg/mL
MDRPA [2]; strain P12
  combined-use MIC: 2 µg/mL
MDRPA [2]; strain P13
  combined-use MIC: 2 µg/mL
MDRPA [2]; strain P14
  combined-use MIC: 4 µg/mL
MDRPA [2]; strain P15
  combined-use MIC: 8 µg/mL
MDRPA [2]; strain P16
  combined-use MIC: 2 µg/mL
MDRPA [2]; strain P17
  combined-use MIC: 4 µg/mL
MDRPA [2]; strain P18
  combined-use MIC: 4 µg/mL
MDRPA [2]; strain P19
  combined-use MIC: 4 µg/mL
MDRPA [2]; strain P20
  combined-use MIC: 2 µg/mL
